Assay type in all cases: in vivo
The subject of one test is Botrytis cinerea. Put plainly: Botrytis test (bean)/protective. Conditions: protective, application rate 500 g/ha, evaluation 2 days after inoculation. How it is done:
Botrytis Test (Bean)/Protective • Solvent: 49 parts by weight of N,N-dimethylformamide • Emulsifier: 1 part by weight of alkylaryl polyglycol ether To produce a suitable preparation of active compound, 1 part by weight of active compound is mixed with the stated amounts of solvent and emulsifier, and the concentrate is diluted with water to the desired concentration. To test for protective activity, young plants are sprayed with the preparation of active compound at the stated application rate. After the spray coating has dried on, 2 small pieces of agar colonized by Botrytis cinerea are placed onto each leaf. The inoculated plants are placed in a dark chamber at about 20° C. and 100% relative atmospheric humidity. 2 days after the inoculation, the size of the infected areas on the leaves is evaluated. 0% means an efficacy which corresponds to that of the control, whereas an efficacy of 100% means that no infection is observed.

A further test concerns Alternaria solani. Put plainly: Alternaria test (tomato)/protective. Conditions: protective, application rate 750 g/ha, evaluation 7 days after inoculation.
For test [1], the system named is Erysiphe graminis f. sp. hordei. The test is described as follows: Erysiphe test (barley)/protective. The conditions noted are these: protective, application rate 750 g/ha, evaluation 7 days after inoculation.

Regarding `CC(C)CC(C)c1ccccc1NC(=O)c1ccccc1C(F)(F)F` (stereo not drawn) [drawing 14], in the test on Botrytis cinerea, the Efficacy in % was 93%.
On the same count and under the same terms, the result for `CC(C)CC(C)c1ccccc1NC(=O)c1ccccc1I` (stereo not drawn) [drawing 15] reads 93%.
Regarding `CC(C)CC(C)c1ccccc1NC(=O)c1ccccc1C(F)(F)F` (stereo not drawn) [drawing 16], in the test with Alternaria solani, the Efficacy in % was found to be 100%.
On the same count and under the same terms, the result for `CC(C)CC(C)c1ccccc1NC(=O)c1ccccc1I` (stereo not drawn) [drawing 17] reads 100%.
Compound `CC(C)CC(C)c1ccccc1NC(=O)c1ccccc1C(F)(F)F` (stereo not drawn) [drawing 18] gave an Efficacy in % in test [1] of 95%.
Same read-out and setting: under `CC(C)CC(C)c1ccccc1NC(=O)c1ccccc1I` (stereo not drawn) [drawing 19] stands 95%.

The values above are taken from US7314958B2, “Phenylbenzamides” (Bayer CropScience AG, priority 2002, dated 2008).
